Data published in patent US20140249135A1, “PIM KINASE INHIBITORS AND METHODS OF THEIR USE” (NOVARTIS AG, priority 2007, published 2014).

Assays:
Type in all cases: biochemical
Pim3 kinase = Pim3 kinase (Homo sapiens, UniProt Q86V86); assay: Pim3 ATP depletion assay; conditions: read-out: IC50 (μM) PIM3
Pim1 kinase = Pim1 kinase (Homo sapiens, UniProt P11309); assay: Pim1 ATP depletion assay; conditions: Pim1 ATP depletion assay; read-out: IC50 (μM) PIM1;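 further: Luciferase-luciferin luminescence readout of residual ATP after PIM1 transfers phosphate to a peptide substrate, 40 µM ATP added, reaction run to roughly half ATP consumption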
Pim2 kinase = Pim2 kinase (Homo sapiens, UniProt Q9P1W9); assay: Pim2 ATP depletion assay; conditions: read-out: IC50 (μM) PIM2;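 further: Luciferase-based luminescent readout of ATP remaining after PIM2 phosphorylates a BAD peptide, final 5 nM enzyme, 4 µM ATP, 10 µM peptide, 2.5% DMSO, run to roughly half ATP consumption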

Measured: IC50

Pim1 kinase, sequence (P11309 whole entry): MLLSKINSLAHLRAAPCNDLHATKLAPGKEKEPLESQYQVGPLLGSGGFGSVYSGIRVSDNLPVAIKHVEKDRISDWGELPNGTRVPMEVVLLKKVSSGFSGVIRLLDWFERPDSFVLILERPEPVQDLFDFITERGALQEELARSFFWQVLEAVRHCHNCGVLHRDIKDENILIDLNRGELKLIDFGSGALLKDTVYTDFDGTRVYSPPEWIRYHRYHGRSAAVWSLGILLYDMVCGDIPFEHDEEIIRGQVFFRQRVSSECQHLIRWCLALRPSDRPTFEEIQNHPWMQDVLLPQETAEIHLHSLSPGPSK
Pim2 kinase, sequence (Q9P1W9 whole entry): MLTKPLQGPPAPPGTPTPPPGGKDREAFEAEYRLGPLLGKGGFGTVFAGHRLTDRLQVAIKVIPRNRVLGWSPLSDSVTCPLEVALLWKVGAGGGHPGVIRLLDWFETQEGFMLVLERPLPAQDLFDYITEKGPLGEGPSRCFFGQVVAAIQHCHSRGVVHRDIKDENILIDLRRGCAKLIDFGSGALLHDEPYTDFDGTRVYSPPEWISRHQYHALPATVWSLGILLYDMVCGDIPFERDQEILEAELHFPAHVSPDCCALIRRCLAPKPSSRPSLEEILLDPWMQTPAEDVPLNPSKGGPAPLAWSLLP

N#CCc1cccc(-c2ccc(N)c(C(=O)Nc3cnccc3N3CCC[C@H](N)C3)n2)c1 [Example 457, 3-Amino-6-(3-cyanomethyl-phenyl)-pyridine-2-carboxylic acid (3-amino-3,4,5,6-tetrahydro-2H-[1,4′]bipyridinyl-3′-yl)-amide]
< 1 µM: all assays above

Nc1ccc(-c2cccc(-c3ccccc3)c2)nc1C(=O)Nc1cnccc1N1CCC[C@H](N)C1 [Example 458, 3-Amino-6-biphenyl-3-yl-pyridine-2-carboxylic acid (3-amino-3,4,5,6-tetrahydro-2H-[1,4′]bipyridinyl-3′-yl)-amide]
< 1 µM: all assays above

Nc1ccc(-c2cccc(Br)c2)nc1C(=O)Nc1cnccc1N1CCC[C@H](N)C1 [Example 459, 3-Amino-6-(3-bromo-phenyl)-pyridine-2-carboxylic acid (3-amino-3,4,5,6-tetrahydro-2H-[1,4′]bipyridinyl-3′-yl)-amide]
< 1 µM: all assays above

Nc1ccc(-c2cccc(C(F)(F)F)c2)nc1C(=O)Nc1cnccc1N1CCC[C@H](N)C1 [Example 460, 3-Amino-6-(3-trifluoromethyl-phenyl)-pyridine-2-carboxylic acid (3-amino-3,4,5,6-tetrahydro-2H-[1,4′]bipyridinyl-3′-yl)-amide]
< 1 µM: all assays above

N#Cc1cccc(-c2ccc(N)c(C(=O)Nc3cnccc3N3CCC[C@H](N)C3)n2)c1 [Example 461, 3-Amino-6-(3-cyano-phenyl)-pyridine-2-carboxylic acid (3-amino-3,4,5,6-tetrahydro-2H-[1,4′]bipyridinyl-3′-yl)-amide]
< 1 µM: all assays above

Nc1ccc(-c2c(F)ccc(OCc3ccccc3Cl)c2F)nc1C(=O)Nc1cnccc1N1CCC[C@H](N)C1 [Example 464, 3-Amino-6-[3-(2-chloro-benzyloxy)-2,6-difluoro-phenyl]-pyridine-2-carboxylic acid (3-amino-3,4,5,6-tetrahydro-2H-[1,4′]bipyridinyl-3′-yl)-amide]
< 1 µM: all assays above

Nc1ccc(-c2c(F)ccc(OCc3ccccc3F)c2F)nc1C(=O)Nc1cnccc1N1CCC[C@H](N)C1 [Example 465, 3-Amino-6-[2,6-difluoro-3-(2-fluoro-benzyloxy)-phenyl]-pyridine-2-carboxylic acid (3-amino-3,4,5,6-tetrahydro-2H-[1,4′]bipyridinyl-3′-yl)-amide]
< 1 µM: all assays above

CCCCOc1ccc(F)c(-c2ccc(N)c(C(=O)Nc3cnccc3N3CCC[C@H](N)C3)n2)c1F [Example 466, 3-Amino-6-(3-butoxy-2,6-difluoro-phenyl)-pyridine-2-carboxylic acid (3-amino-3,4,5,6-tetrahydro-2H-[1,4′]bipyridinyl-3′-yl)-amide]
< 1 µM: all assays above

CC(C)Oc1ccc(F)c(-c2ccc(N)c(C(=O)Nc3cnccc3N3CCC[C@H](N)C3)n2)c1 [Example 467, 3-Amino-6-(2-fluoro-5-isopropoxy-phenyl)-pyridine-2-carboxylic acid (3-amino-3,4,5,6-tetrahydro-2H-[1,4′]bipyridinyl-3′-yl)-amide]
< 1 µM: all assays above

CCCOc1ccc(F)c(-c2ccc(N)c(C(=O)Nc3cnccc3N3CCC[C@H](N)C3)n2)c1 [Example 468, 3-Amino-6-(2-fluoro-5-propoxy-phenyl)-pyridine-2-carboxylic acid (3-amino-3,4,5,6-tetrahydro-2H-[1,4′]bipyridinyl-3′-yl)-amide]
< 1 µM: all assays above

CCOc1ccc(F)c(-c2ccc(N)c(C(=O)Nc3cnccc3N3CCC[C@H](N)C3)n2)c1 [Example 469, 3-Amino-6-(5-ethoxy-2-fluoro-phenyl)-pyridine-2-carboxylic acid (3-amino-3,4,5,6-tetrahydro-2H-[1,4′]bipyridinyl-3′-yl)-amide]
< 1 µM: all assays above

COc1ccc(F)c(-c2ccc(N)c(C(=O)Nc3cnccc3N3CCC[C@H](N)C3)n2)c1 [Example 470, 3-Amino-6-(2-fluoro-5-methoxy-phenyl)-pyridine-2-carboxylic acid (3-amino-3,4,5,6-tetrahydro-2H-[1,4′]bipyridinyl-3′-yl)-amide]
< 1 µM: all assays above

COc1cccc(-c2ccc(N)c(C(=O)Nc3cnccc3N3CCC[C@H](N)C3)n2)c1F [Example 471, 3-Amino-6-(2-fluoro-3-methoxy-phenyl)-pyridine-2-carboxylic acid (3-amino-3,4,5,6-tetrahydro-2H-[1,4′]bipyridinyl-3′-yl)-amide]
< 1 µM: all assays above

Cc1ccncc1-c1ccc(N)c(C(=O)Nc2cnccc2N2CCC[C@H](N)C2)n1 [Example 472, 5-Amino-4′-methyl-[2,3′]bi-pyridinyl-6-carboxylic acid (3-amino-3,4,5,6-tetrahydro-2H-[1,4′]bipyridinyl-3′-yl)-amide]
< 1 µM: all assays above

Nc1ccc(-c2ccc(-c3ccccc3)cc2)nc1C(=O)Nc1cnccc1N1CCC[C@H](N)C1 [Example 473, 3-Amino-6-biphenyl-4-yl-pyridine-2-carboxylic acid (3-amino-3,4,5,6-tetrahydro-2H-[1,4′]bipyridinyl-3′-yl)-amide]
< 1 µM: all assays above

Nc1ccc(-c2sccc2Cl)nc1C(=O)Nc1cnccc1N1CCC[C@H](N)C1 [Example 474, 3-Amino-6-(3-chloro-thiophen-2-yl)-pyridine-2-carboxylic acid (3-amino-3,4,5,6-tetrahydro-2H-[1,4′]bipyridinyl-3′-yl)-amide]
< 1 µM: all assays above

Nc1ccc(-c2cccs2)nc1C(=O)Nc1cnccc1N1CCC[C@H](N)C1 [Example 475, 3-Amino-6-thiophen-2-yl-pyridine-2-carboxylic acid (3-amino-3,4,5,6-tetrahydro-2H-[1,4′]bipyridinyl-3′-yl)-amide]
< 1 µM: all assays above

Cc1ccc(-c2ccc(N)c(C(=O)Nc3cnccc3N3CCC[C@H](N)C3)n2)c(F)n1 [Example 476, 5-Amino-2′-fluoro-6′-methyl-[2,3′]bipyridinyl-6-carboxylic acid (3-amino-3,4,5,6-tetrahydro-2H-[1,4′]bipyridinyl-3′-yl)-amide]
< 1 µM: all assays above
